Columns and labels:
[1] = test system: AsPC-1 (pancreatic cancer); experiment: MTT cell viability assay; type: cell-based, human; settings: AsPC-1, cultured 24 and 48 hours, increasing concentrations; time- and dose-dependent
Experimental: (§1) To verify the efficacy of salvianolic acid B (Sigma-Aldrich) and tanshinone I (Sigma-Aldrich) on tumor cells, MTT (3-(4,5-dimethylthiazol-2-yl)-2,5-diphenyltetrazolium bromide) assay was applied to measure cell viability.
(§2) For the experiment, AsPC-1 (pancreatic cancer), HCT116 (colon cancer), and NCI-H460 (lung cancer) were used as tumor cell lines, and each tumor cell was dispensed by 1×10^3 cells/well (100 μL). After dispensing, all cells were attached to the wells for 24 hours. […] After culturing the drug-treated tumor cells for 24 and 48 hours, MTT at a concentration of 5 mg/mL was added to each tumor cell, followed by culture for 90 minutes again. Finally, the optical density (OD) of the tumor cells was measured at 540 nm using a microplate reader (Molecular Devices, USA). The analysis was performed three or more times.

HCT116 (colon cancer) = experiment: MTT cell viability assay; type: cell-based, human; settings: HCT116, cultured 24 and 48 hours, increasing concentrations; time- and dose-dependent
Experimental: as §1, §2

NCI-H460 (lung cancer) = experiment: MTT cell viability assay; type: cell-based, human; settings: NCI-H460, cultured 24 and 48 hours, increasing concentrations; time- and dose-dependent
Experimental: as §1, §2

KRAS G12V [2] = biological target: T1, KRAS G12V (Homo sapiens, UniProt P01116, G12V); experiment: Isothermal titration calorimetry (ITC); settings: 25° C., read-out: binding affinity KD
T1 sequence (P01116 1-188 isoform P01116-2 G12V): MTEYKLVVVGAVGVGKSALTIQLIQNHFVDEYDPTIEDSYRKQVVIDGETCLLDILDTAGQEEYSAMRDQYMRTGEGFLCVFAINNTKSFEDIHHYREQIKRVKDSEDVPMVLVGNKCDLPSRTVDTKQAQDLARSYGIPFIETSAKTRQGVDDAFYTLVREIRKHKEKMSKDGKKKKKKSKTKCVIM
Experimental: In order to identify the affinity of salvianolic acid B or tanshinone I for the KRAS mutant KRAS G12V protein, isothermal titration calorimetry (ITC) was used. KRAS G12V protein was dialyzed using buffer [20 mM Tris-HCl (pH 7.4), 100 mM NaCl, and 2 mM MgCl2]. Next, salvianolic acid B or tanshinone I was dissolved using the same buffer, and then the prepared KRAS G12V protein and salvianolic acid B or tanshinone I were injected into an isothermal calorimeter to perform isothermal titration thermometry. Titration measurement was performed at 25° C., involved with 20 injections at an interval of 200 seconds while salvianolic acid B or tanshinone I was stirred at 1,000 rpm. ΔS was calculated from standard thermodynamic equations using the calculated K and ΔH values. Isothermal titration thermometric analysis was performed using a MicroCal AutoITC200 (GE Healthcare, Sweden), and data were analyzed using the Origin 7.0 program.

KRAS G12V [3] = biological target: T1, KRAS G12V; experiment: Guanine nucleotide binding assay; design: made in house; host or cells: E. coli BL21 (DE3); settings: in the presence of compound, 37° C., liquid scintillation counting
Experimental: The recombinant gene KRAS G12V was inserted into E. coli BL21 (DE3) for expression. The overexpressed protein was purified using affinity chromatography and gel filtration chromatography. Purified KRAS G12V protein was bound to Ni-NTA beads using binding buffer [50 mM Hepes (pH 7.5), 100 mM NaCl, 2 mM MgCl2, 1 mM EDTA, and 1 mM DTT] at 4° C. Ni-NTA beads bound with KRAS G12V proteins were washed with binding buffer and then reacted with radioisotope [α-^32P] GTP (2,500 cpm/pmol), GTP, and salvianolic acid B or tanshinone I at 37° C. The beads were then washed with wash buffer [20 mM Tris-HCl (pH 7.4), 100 mM NaCl, and 2 mM MgCl2]. 200 mM imidazole was used to elute the bead-bound KRAS G12V protein, and radioactive nucleotides were quantified by liquid scintillation counting.

`O=C(/C=C/c1ccc(O)c2c1[C@H](C(=O)O[C@H](Cc1ccc(O)c(O)c1)C(=O)O)[C@@H](c1ccc(O)c(O)c1)O2)O[C@H](Cc1ccc(O)c(O)c1)C(=O)O` [salvianolic acid B] was tested, and the cell viability [1] was “decrease in cell viability”, the cell viability (HCT116 (colon cancer)) was “decrease in cell viability” and the cell viability (NCI-H460 (lung cancer)) was “decrease in cell viability”. The Kd (KRAS G12V [2]) was 32 µM and the “activity of radioisotope [α-32P] GTP binding of KRAS G12V” value (KRAS G12V [3]) was “decreased”.
For `Cc1coc2c1C(=O)C(=O)c1c-2ccc2c(C)cccc12` [tanshinone I], the cell viability [1] was “decrease in cell viability”, the cell viability (HCT116 (colon cancer)) was “decrease in cell viability” and the cell viability (NCI-H460 (lung cancer)) was “decrease in cell viability”. For the same compound, the Kd (KRAS G12V [2]) was 21 µM and the “activity of radioisotope [α-32P] GTP binding of KRAS G12V” value (KRAS G12V [3]) was “decreased”.

From patent publication US20230147718A1, “COMPOSITION FOR CANCER PREVENTION OR TREATMENT, CONTAINING, AS ACTIVE INGREDIENT, SALVIANOLIC ACID B OR TANSHINONE I” (GJMEDI, priority 2020, published 2023)
